Laboratory results as given in ChEMBL document CHEMBL5543097, “Synthesis and structure-activity relationships of novel 14-membered 2-fluoro ketolides with structural modification at the C11 position” (Eur J Med Chem, 2024).
≈ marks a conversion by molar mass, not a printed value. Calls of active or inactive are those of the source. No cut-off for these calls is given here.

Tests used:
[1] = tested on: Enterococcus faecium; experiment: Antibacterial activity against vancomycin-resistant Enterococcus faecium assessed as inhibition of visible bacterial growth; assay type: functional
[2] = tested on: Haemophilus influenzae; experiment: Antibacterial activity against Haemophilus influenzae HIN 19-18 assessed as inhibition of bacterial growth incubated for 20 to 24 hrs by CLSI based broth microdilution method; assay type: functional; settings: HIN 19-18, time 20-24 hrs
[3] = tested on: Streptococcus pyogenes; experiment: Antibacterial activity against erythromycin-resistant Streptococcus pyogenes ATCC 19615 assessed as inhibition of visible bacterial growth incubated for 18 hrs by broth microdilution method; assay type: functional
[4] = tested on: Streptococcus agalactiae; experiment: Antibacterial activity against erythromycin-resistant Streptococcus agalactiae 19-8 assessed as inhibition of visible bacterial growth incubated for 18 hrs by broth microdilution method; assay type: functional
[5] = tested on: Streptococcus pneumoniae; experiment: Antibacterial activity against erythromycin-resistant Streptococcus pneumoniae SPN19-14 assessed as inhibition of visible bacterial growth incubated for 18 hrs by broth microdilution method; assay type: functional
[6] = tested on: Streptococcus pneumoniae; experiment: Antibacterial activity against erythromycin-resistant Streptococcus pneumoniae SPN19-13 assessed as inhibition of visible bacterial growth incubated for 18 hrs by broth microdilution method; assay type: functional
[7] = tested on: Streptococcus pneumoniae; experiment: Antibacterial activity against erythromycin-resistant Streptococcus pneumoniae SPN19-8 assessed as inhibition of visible bacterial growth incubated for 18 hrs by broth microdilution method; assay type: functional
[8] = tested on: Staphylococcus epidermidis; experiment: Antibacterial activity against erythromycin-resistant Staphylococcus epidermidis 19-9 assessed as inhibition of visible bacterial growth incubated for 18 hrs by broth microdilution method; assay type: functional
[9] = tested on: Enterococcus faecalis; experiment: Antibacterial activity against Enterococcus faecalis ATCC 51575 assessed as inhibition of visible bacterial growth; assay type: functional, organism-based
[10] = tested on: Staphylococcus epidermidis; experiment: Antibacterial activity against erythromycin-resistant Staphylococcus epidermidis 19-5 assessed as inhibition of visible bacterial growth incubated for 18 hrs by broth microdilution method; assay type: functional
[11] = tested on: Streptococcus agalactiae; experiment: Antibacterial activity against erythromycin-resistant Streptococcus agalactiae 19-9 assessed as inhibition of visible bacterial growth incubated for 18 hrs by broth microdilution method; assay type: functional
[12] = tested on: Staphylococcus epidermidis; experiment: Antibacterial activity against erythromycin-resistant Staphylococcus epidermidis 19-8 assessed as inhibition of visible bacterial growth incubated for 18 hrs by broth microdilution method; assay type: functional
[13] = tested on: Staphylococcus epidermidis; experiment: Antibacterial activity against erythromycin-resistant Staphylococcus epidermidis 19-6 assessed as inhibition of visible bacterial growth incubated for 18 hrs by broth microdilution method; assay type: functional
[14] = tested on: Staphylococcus epidermidis; experiment: Antibacterial activity against erythromycin-resistant Staphylococcus epidermidis 19-11 assessed as inhibition of visible bacterial growth incubated for 18 hrs by broth microdilution method; assay type: functional
[15] = tested on: Staphylococcus epidermidis; experiment: Antibacterial activity against erythromycin-resistant Staphylococcus epidermidis 19-4 assessed as inhibition of visible bacterial growth incubated for 18 hrs by broth microdilution method; assay type: functional
[16] = tested on: Moraxella catarrhalis; experiment: Antibacterial activity against Moraxella catarrhalis BCA 19-5 assessed as inhibition of bacterial growth incubated for 24 hrs by CLSI based broth microdilution method; assay type: functional; settings: Moraxella catarrhalis, BCA 19-5, 24 h, read-out: MIC
[17] = Cytotoxicity against mouse AML12 cells assessed as reduction in cell viability incubated for 48 hrs by MTT assay; assay type: toxicity, cell-based
[18] = tested on: Moraxella catarrhalis; experiment: Antibacterial activity against Moraxella catarrhalis BCA 19-6 assessed as inhibition of bacterial growth incubated for 24 hrs by CLSI based broth microdilution method; assay type: functional; settings: Moraxella catarrhalis, BCA 19-6, 24 h, read-out: MIC
[19] = tested on: Moraxella catarrhalis; experiment: Antibacterial activity against Moraxella catarrhalis BCA 19-31 assessed as inhibition of bacterial growth incubated for 24 hrs by CLSI based broth microdilution method; assay type: functional; settings: BCA 19-31, 24 h
[20] = tested on: Streptococcus pneumoniae; experiment: Potency index, ratio of telithromycin MIC to test compound MIC for antibacterial activity against Streptococcus pneumoniae SPN19-8 assessed as inhibition of visible bacterial growth incubated for 18 hrs by broth microdilution method; assay type: functional
[21] = tested on: Staphylococcus aureus; experiment: Antibacterial activity against Staphylococcus aureus ATCC 700699 assessed as inhibition of visible bacterial growth; assay type: functional
[22] = tested on: Staphylococcus epidermidis; experiment: Potency index, ratio of telithromycin MIC to test compound MIC for antibacterial activity against erythromycin-resistant Staphylococcus epidermidis 19-4 assessed as inhibition of visible bacterial growth incubated for 18 hrs by broth microdilution method; assay type: functional
[23] = tested on: Staphylococcus epidermidis; experiment: Potency index, ratio of telithromycin MIC to test compound MIC for antibacterial activity against erythromycin-resistant Staphylococcus epidermidis 19-8 assessed as inhibition of visible bacterial growth incubated for 18 hrs by broth microdilution method; assay type: functional
[24] = tested on: Streptococcus pneumoniae; experiment: Potency index, ratio of telithromycin MIC to test compound MIC for antibacterial activity against Streptococcus pneumoniae SPN19-13 assessed as inhibition of visible bacterial growth incubated for 18 hrs by broth microdilution method; assay type: functional
[25] = tested on: Staphylococcus epidermidis; experiment: Potency index, ratio of telithromycin MIC to test compound MIC for antibacterial activity against erythromycin-resistant Staphylococcus epidermidis 19-9 assessed as inhibition of visible bacterial growth incubated for 18 hrs by broth microdilution method; assay type: functional
[26] = tested on: Staphylococcus epidermidis; experiment: Potency index, ratio of telithromycin MIC to test compound MIC for antibacterial activity against erythromycin-resistant Staphylococcus epidermidis 19-5 assessed as inhibition of visible bacterial growth incubated for 18 hrs by broth microdilution method; assay type: functional
[27] = tested on: Haemophilus influenzae; experiment: Antibacterial activity against Haemophilus influenzae HIN 19-15 assessed as inhibition of bacterial growth incubated for 20 to 24 hrs by CLSI based broth microdilution method; assay type: functional; settings: time 20-24 hrs
[28] = tested on: Staphylococcus epidermidis; experiment: Potency index, ratio of telithromycin MIC to test compound MIC for antibacterial activity against erythromycin-resistant Staphylococcus epidermidis 19-6 assessed as inhibition of visible bacterial growth incubated for 18 hrs by broth microdilution method; assay type: functional
[29] = tested on: Streptococcus pneumoniae; experiment: Potency index, ratio of telithromycin MIC to test compound MIC for antibacterial activity against Streptococcus pneumoniae SPN19-14 assessed as inhibition of visible bacterial growth incubated for 18 hrs by broth microdilution method; assay type: functional
[30] = tested on: Staphylococcus epidermidis; experiment: Potency index, ratio of telithromycin MIC to test compound MIC for antibacterial activity against erythromycin-resistant Staphylococcus epidermidis 19-11 assessed as inhibition of visible bacterial growth incubated for 18 hrs by broth microdilution method; assay type: functional

Row | SMILES | MIC [1] [µg/mL] | MIC [2] [µg/mL] | MIC [3] [µg/mL] | MIC [4] [µg/mL] | MIC [5] [µg/mL] | MIC [6] [µg/mL] | MIC [7] [µg/mL] | MIC [8] [µg/mL] | MIC [10] [µg/mL] | MIC [11] [µg/mL] | MIC [12] [µg/mL] | MIC [13] [µg/mL] | MIC [14] [µg/mL] | MIC [15] [µg/mL] | MIC [16] [µg/mL] | CC50 at 48 h [17] [µM] | MIC [18] [µg/mL] | MIC [19] [µg/mL] | other results
1 | CC[C@H]1OC(=O)[C@@](C)(F)C(=O)[C@H](C)[C@@H](O[C@@H]2O[C@H](C)C[C@H](N(C)C)[C@H]2O)[C@](C)(OC)C[C@@H](C)C(=O)[C@H](C)[C@H]2N(CCCOC(=O)Nc3ccc(C(C)C)cc3)C(=O)O[C@]12C | 16 (≈ 18.8 µM) | 16 (≈ 18.8 µM) | < 0.03 | < 0.03 | 1 (≈ 1.18 µM) | 1 (≈ 1.18 µM) | 2 (≈ 2.35 µM) | 1 (≈ 1.18 µM) | < 0.03 | 4 (≈ 4.71 µM) | < 0.03 | 0.25 (≈ 0.294 µM) | 0.25 (≈ 0.294 µM) | 0.125 (≈ 0.147 µM) | 0.5 (≈ 0.588 µM) | 25.5 | 0.25 (≈ 0.294 µM) | 1 (≈ 1.18 µM) | Activity [9]: Active
2 | CC[C@H]1OC(=O)[C@@](C)(F)C(=O)[C@H](C)[C@@H](O[C@@H]2O[C@H](C)C[C@H](N(C)C)[C@H]2O)[C@](C)(OC)C[C@@H](C)C(=O)[C@H](C)[C@H]2N(CCCOC(=O)Nc3ccc4ccccc4c3)C(=O)O[C@]12C | 16 (≈ 18.6 µM) | 2 (≈ 2.33 µM) | < 0.03 | < 0.03 | < 0.03 | < 0.03 | 0.25 (≈ 0.291 µM) | 0.125 (≈ 0.146 µM) | < 0.03 | 0.5 (≈ 0.583 µM) | < 0.03 | < 0.03 | < 0.03 | < 0.03 | < 0.03 | 18.5 | < 0.03 | < 0.03 | Ratio [20]: <4; MIC [21]: 16 µg/mL (≈ 18.6 µM); Ratio [22]: 4; Ratio [23]: 4; Ratio [24]: <4; Ratio [25]: 4; Ratio [26]: 4; MIC [27]: 8 µg/mL (≈ 9.32 µM); Ratio [28]: 4; Ratio [29]: <4; Ratio [30]: 4
